Measurements from patent US20210196724A1, “BIARYL COMPOSITIONS AND METHODS FOR MODULATING A KINASE CASCADE” (Athenex, Inc., priority 2016, published 2021).

Columns and labels:
Assay type in all cases: cell-based
Conditions in all cases: 72 h
HeLa cells = experiment: CellTiter-Glo cell viability, HeLa
Description: (§1) The cell viability of 50 cancer cell lines was studied after treatment with Compound 121. Inhibition concentration values at 50% (IC50) were determined using CellTiter-Glo luminescent cell viability assay after incubation with different compound concentrations. GI50 values were determined according to the examples described above. Each cell line was treated with Compound 121, a standard chemotherapy drug as a reference control, and culture medium as a vehicle control.
(§2) All cells were cultured in media supplemented with 10-15% FBS at 37° C. in the presence of 5% CO2 and at 95% humidity. The culture medium was purchased from GIBCO or Sigma, USA. Cisplatin was chosen as the reference control and purchased from Hospira Australia Pty Ltd. The cell lines studied are presented in Table 5.
(§3) Cells were harvested during a logarithmic growth period and cell number count was determined using Count-star. Cell concentrations were adjusted to 4.44×10^4 cells/mL with respective culture medium. 90 μL of cell suspensions were added to two 96-well plates (plates A and B) with a final cell density of 4×10^3 cells/well.
(§4) 10 μL of culture medium was added to each well of plate A for TO reading. The plate was allowed to equilibrate at room temperature for approximately 30 min. 50 μL of CellTiter-Glo was added to each well and the contents were mixed for 5 min on an orbital shaker to induce cell lysis. The plate was allowed to incubate at room temperature for 20 min to stabilize luminescent signal.
(§5) 10 μM Compound 121 in media was serially diluted 3.16-fold to achieve 9 dose levels. Similarly, 100 μM reference control in media was serially diluted 3.16-fold to prepare reference control solutions. 10 μL drug solution and 10 μL of reference control was dispensed into each well in plate B.
(§6) Test plate B was incubated for 72 h in a humidified incubator at 37° C. in the presence of 5% CO2 and then subjected to CTG assay. The plate was allowed to equilibrate at room temperature for about 30 min. 50 μL of CellTiter-Glo was added to each well and the contents were mixed for 5 min on an orbital shaker to induce cell lysis. The plate was allowed to incubate at room temperature for 20 min to stabilize luminescent signal.
(§7) IC50 and GI50 values for each of the 50 cell lines are presented in Table 6 and were calculated based on the dose-response curves depicted in FIGS. 1-50. The dose-response curves were fitted using nonlinear regression model with a sigmoidal dose response. The formula for calculating survival rate was calculated by the formula:
(§8) Survival rate (%)=(LumTest article−LumMedium control)/(LumNone treated−LumMedium control)×100.

KYSE-150 cells = experiment: CellTiter-Glo cell viability, KYSE-150
Description: as §1, §2, §3, §4, §5, §6, §7, §8

HuT 78 cells = experiment: CellTiter-Glo cell viability, HuT 78
Description: as §1, §2, §3, §4, §5, §6, §7, §8

EBC-1 cells = experiment: CellTiter-Glo cell viability, EBC-1
Description: as §1, §2, §3, §4, §5, §6, §7, §8

PC-3 cells = experiment: CellTiter-Glo cell viability, PC-3
Description: as §1, §2, §3, §4, §5, §6, §7, §8

HL-60 cells = experiment: CellTiter-Glo cell viability, HL-60
Description: as §1, §2, §3, §4, §5, §6, §7, §8

786-O cells = experiment: CellTiter-Glo cell viability, 786-O
Description: as §1, §2, §3, §4, §5, §6, §7, §8

RPMI 8226 cells = experiment: CellTiter-Glo cell viability, RPMI 8226
Description: as §1, §2, §3, §4, §5, §6, §7, §8

MDA-MB-468 cells = experiment: CellTiter-Glo cell viability, MDA-MB-468
Description: as §1, §2, §3, §4, §5, §6, §7, §8

HCT-116 cells = experiment: CellTiter-Glo cell viability, HCT-116
Description: as §1, §2, §3, §4, §5, §6, §7, §8

MDA-MB-231 cells = experiment: CellTiter-Glo cell viability, MDA-MB-231
Description: as §1, §2, §3, §4, §5, §6, §7, §8

U251 cells = experiment: CellTiter-Glo cell viability, U251
Description: as §1, §2, §3, §4, §5, §6, §7, §8

K-562 cells = experiment: CellTiter-Glo cell viability, K-562
Description: as §1, §2, §3, §4, §5, §6, §7, §8

143B cells = experiment: CellTiter-Glo cell viability, 143B
Description: as §1, §2, §3, §4, §5, §6, §7, §8

KP4 cells = experiment: CellTiter-Glo cell viability, KP4
Description: as §1, §2, §3, §4, §5, §6, §7, §8

HT-29 cells = experiment: CellTiter-Glo cell viability, HT-29
Description: as §1, §2, §3, §4, §5, §6, §7, §8

HuCCT1 cells = experiment: CellTiter-Glo cell viability, HuCCT1
Description: as §1, §2, §3, §4, §5, §6, §7, §8

NCI-H1975 cells = experiment: CellTiter-Glo cell viability, NCI-H1975
Description: as §1, §2, §3, §4, §5, §6, §7, §8

AN3 CA cells = experiment: CellTiter-Glo cell viability, AN3 CA
Description: as §1, §2, §3, §4, §5, §6, §7, §8

A2058 cells = experiment: CellTiter-Glo cell viability, A2058
Description: as §1, §2, §3, §4, §5, §6, §7, §8

HT-1080 cells = experiment: CellTiter-Glo cell viability, HT-1080
Description: as §1, §2, §3, §4, §5, §6, §7, §8

[1] = top conc. 10 μM Compound 121, 100 μM cisplatin

N.N.[Cl][Pt][Cl] [Cisplatin, reference compound]
GI50 (HeLa cells; read-out: Absolute GI50): 0.3 µM
% inhibition at top conc. (HeLa cells; [1]): 99.60%
GI50 (KYSE-150 cells; read-out: Absolute GI50): 6.26 µM
IC50 (KYSE-150 cells; read-out: Absolute IC50): 8.14 µM
% inhibition at top conc. (KYSE-150 cells; [1]): 91.28%
GI50 (HuT 78 cells; read-out: Absolute GI50): 0.5 µM
IC50 (HuT 78 cells; read-out: Absolute IC50): 0.66 µM
% inhibition at top conc. (HuT 78 cells; [1]): 98.27%
GI50 (EBC-1 cells; read-out: Absolute GI50): 11.8 µM
IC50 (EBC-1 cells; read-out: Absolute IC50): 17.3 µM
% inhibition at top conc. (EBC-1 cells; [1]): 84.49%
GI50 (PC-3 cells; read-out: Absolute GI50): 4.68 µM
IC50 (PC-3 cells; read-out: Absolute IC50): 5.94 µM
% inhibition at top conc. (PC-3 cells; [1]): 83.88%
GI50 (HL-60 cells; read-out: Absolute GI50): 1.34 µM
IC50 (HL-60 cells; read-out: Absolute IC50): 1.46 µM
% inhibition at top conc. (HL-60 cells; [1]): 99.99%
GI50 (786-O cells; read-out: Absolute GI50): 1.6 µM
IC50 (786-O cells; read-out: Absolute IC50): 1.77 µM
% inhibition at top conc. (786-O cells; [1]): 98.46%
GI50 (RPMI 8226 cells; read-out: Absolute GI50): 2.38 µM
IC50 (RPMI 8226 cells; read-out: Absolute IC50): 3.62 µM
% inhibition at top conc. (RPMI 8226 cells; [1]): 99.76%
GI50 (MDA-MB-468 cells; read-out: Absolute GI50): 0.65 µM
IC50 (MDA-MB-468 cells; read-out: Absolute IC50): 0.93 µM
% inhibition at top conc. (MDA-MB-468 cells; [1]): 99.91%
GI50 (HCT-116 cells; read-out: Absolute GI50): 4.14 µM
IC50 (HCT-116 cells; read-out: Absolute IC50): 4.35 µM
% inhibition at top conc. (HCT-116 cells; [1]): 95.29%
GI50 (MDA-MB-231 cells; read-out: Absolute GI50): 18.6 µM
% inhibition at top conc. (MDA-MB-231 cells; [1]): 85.68%
GI50 (U251 cells; read-out: Absolute GI50): 3.07 µM
IC50 (U251 cells; read-out: Absolute IC50): 3.98 µM
% inhibition at top conc. (U251 cells; [1]): 87.70%
GI50 (K-562 cells; read-out: Absolute GI50): 4.21 µM
IC50 (K-562 cells; read-out: Absolute IC50): 4.51 µM
% inhibition at top conc. (K-562 cells; [1]): 97.94%
GI50 (143B cells; read-out: Absolute GI50): 1.02 µM
IC50 (143B cells; read-out: Absolute IC50): 1.08 µM
% inhibition at top conc. (143B cells; [1]): 99.94%
GI50 (KP4 cells; read-out: Absolute GI50): 6.87 µM
IC50 (KP4 cells; read-out: Absolute IC50): 8.8 µM
% inhibition at top conc. (KP4 cells; [1]): 98.30%
GI50 (HT-29 cells; read-out: Absolute GI50): 8.78 µM
IC50 (HT-29 cells; read-out: Absolute IC50): 9.8 µM
% inhibition at top conc. (HT-29 cells; [1]): 89.05%
GI50 (HuCCT1 cells; read-out: Absolute GI50): 6.59 µM
IC50 (HuCCT1 cells; read-out: Absolute IC50): 8.44 µM
% inhibition at top conc. (HuCCT1 cells; [1]): 90.42%
GI50 (NCI-H1975 cells; read-out: Absolute GI50): 5.52 µM
IC50 (NCI-H1975 cells; read-out: Absolute IC50): 6.93 µM
% inhibition at top conc. (NCI-H1975 cells; [1]): 98.75%
GI50 (AN3 CA cells; read-out: Absolute GI50): 3.68 µM
IC50 (AN3 CA cells; read-out: Absolute IC50): 4.38 µM
% inhibition at top conc. (AN3 CA cells; [1]): 99.95%
GI50 (A2058 cells; read-out: Absolute GI50): 2.38 µM
IC50 (A2058 cells; read-out: Absolute IC50): 3.11 µM
% inhibition at top conc. (A2058 cells; [1]): 99.85%
GI50 (HT-1080 cells; read-out: Absolute GI50): 1.98 µM
IC50 (HT-1080 cells; read-out: Absolute IC50): 2.22 µM
% inhibition at top conc. (HT-1080 cells; [1]): 99.59%
